Source: patent US9067871B2, “Aminotetraline derivatives, pharmaceutical compositions containing them, and their use in therapy” (ABBVIE DEUTSCHLAND GMBH & CO KG, priority 2009, dated 2015)
Counter-ions that a name gives are not always drawn. Like-named read-outs stand apart in the source and are kept apart here.

Tests used:
human GlyT1c transporter = human GlyT1c transporter (Homo sapiens (Human), UniProt P48067); experiment: Radioligand binding assay using recombinant CHO cell membranes expressing human GlyT1; conditions: read-out: radioligand binding Kiapp
Excerpt: 2. Radioligand binding assays using recombinant CHO cell membranes expressing human GlyT1: […]

human GlyT1c = human GlyT1c (Homo sapiens (Human), UniProt P48067); experiment: [3H]-Glycine uptake into recombinant CHO cells expressing human GlyT1; type: cell-based
Experimental: 1. [^3H]-Glycine uptake into recombinant CHO cells expressing human GlyT1: Human GlyT1c expressing recombinant hGlyT1c—5_CHO cells were plated at 20,000 cells per well in 96 well Cytostar-T scintillation microplates (Amersham Biosciences) and cultured to sub-confluency for 24 h. […] 80 μl HBSS buffer were added, followed by 10 μl inhibitor or vehicle (10% DMSO) and 10 μl [^3H]-glycine (TRK71, Amersham Biosciences) to a final concentration of 200 nM for initiation of glycine uptake. The plates were placed in a Wallac Microbeta (PerkinElmer) and continuously counted by solid phase scintillation spectrometry during up to 3 hours. Nonspecific uptake was determined in the presence of 10 μM Org24598.

[1] = human GlyT1c-expressing CHO cell membranes
[2] = hGlyT1c_5_CHO cells, 200 nM [3H]-glycine

Chain of human GlyT1c transporter (P48067 whole entry): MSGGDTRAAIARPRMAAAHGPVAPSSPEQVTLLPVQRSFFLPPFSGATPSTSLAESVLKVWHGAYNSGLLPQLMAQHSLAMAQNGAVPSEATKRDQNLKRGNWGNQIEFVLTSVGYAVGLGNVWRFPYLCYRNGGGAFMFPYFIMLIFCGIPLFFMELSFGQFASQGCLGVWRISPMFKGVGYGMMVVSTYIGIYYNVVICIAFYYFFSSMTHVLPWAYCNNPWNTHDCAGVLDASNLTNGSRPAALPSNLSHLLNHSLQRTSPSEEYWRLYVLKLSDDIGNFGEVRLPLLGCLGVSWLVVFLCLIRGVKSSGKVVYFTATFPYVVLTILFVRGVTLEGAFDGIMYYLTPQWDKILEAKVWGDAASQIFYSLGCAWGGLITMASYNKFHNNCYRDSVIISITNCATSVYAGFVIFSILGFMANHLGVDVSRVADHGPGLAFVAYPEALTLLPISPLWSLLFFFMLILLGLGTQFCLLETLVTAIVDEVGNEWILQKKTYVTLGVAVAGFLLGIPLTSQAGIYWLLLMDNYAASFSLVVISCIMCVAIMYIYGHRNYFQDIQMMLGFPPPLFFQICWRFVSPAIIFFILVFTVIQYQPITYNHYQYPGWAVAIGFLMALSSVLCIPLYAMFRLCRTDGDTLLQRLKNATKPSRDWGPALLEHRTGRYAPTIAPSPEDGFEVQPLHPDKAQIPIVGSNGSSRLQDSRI
Chain of human GlyT1c (P48067 whole entry): as above

Ki (human GlyT1c transporter; [1]) [µM] | IC50 (human GlyT1c; [2]) [µM] | SMILES | Ki (human GlyT1c transporter) [µM] | IC50 (human GlyT1c) [µM]
≤ 1 | ≤ 10 | CCCS(=O)(=O)N1CC(Oc2ccc3c(c2)C(Cc2cccc(Cl)c2)C(N)CC3)C1 (centres unmarked) [Example 83, 1-(3-Chloro-benzyl)-7-[1-(propane-1-sulfonyl)-azetidin-3-yloxy]-1,2,3,4-tetrahydronaphthalen-2-ylamine hydrochloride] |  | 
≤ 100 | ≤ 100 | N#Cc1ccc2c(c1)C(Cc1ccc(Cl)cc1)C(N)CC2 (centres unmarked) [Example 30, 7-Amino-8-(4-chlorobenzyl)-5,6,7,8-tetrahydronaphthalene-2-carbonitrile hydrochloride] |  | 
≤ 10 | ≥ 100 | CCOC(=O)NC1CCc2ccc(OCCNS(=O)(=O)c3cccs3)cc2C1Cc1ccc(Cl)cc1Cl (centres unmarked) [Example 63, {1-(2,4-Dichloro-benzyl)-7-[2-(thiophene-2-sulfonylamino)-ethoxy]-1,2,3,4-tetrahydronaphthalen-2-yl}-carbamic acid ethyl ester] |  | 
≤ 10 | ≤ 100 | CCNC1CCc2ccc(OCCNS(=O)(=O)c3cn(C)cn3)cc2C1Cc1ccc(Cl)c(Cl)c1 (centres unmarked) [Example 23, 1-Methyl-1H-imidazole-4-sulfonic acid {2-[8-(3,4-dichloro-benzyl)-7-ethylamino-5,6,7,8-tetrahydro-naphthalen-2-yloxy]-ethyl}-amide] |  | 
≤ 10 | ≤ 1000 | CC(C)(C)OC(=O)NC1CCc2ccc(C#N)cc2C1Cc1ccc(Cl)c(Cl)c1 (centres unmarked) [Example 34, tert-Butyl[7-cyano-1-(3,4-dichlorobenzyl)-1,2,3,4-tetrahydronaphthalen-2-yl]carbamate] |  | 
≤ 10 | ≤ 100 | N#Cc1ccc2c(c1)C(Cc1ccc(Cl)c(Cl)c1)C(N)CC2 (centres unmarked) [Example 29, 7-Amino-8-(3,4-dichlorobenzyl)-5,6,7,8-tetrahydronaphthalene-2-carbonitrile trifluoroacetate] |  | 
 |  | CCS(=O)(=O)CCCOc1ccc2c(c1)C(Cc1cccc(Cl)c1)C(N)CC2 (centres unmarked) [Example 84, 1-(3-Chloro-benzyl)-7-(3-ethanesulfonyl-propoxy)-1,2,3,4-tetrahydro-naphthalen-2-ylamine hydrochloride] | ≤ 10 | ≤ 10
≤ 1 | ≤ 10 | Cc1ncc(S(=O)(=O)NCCOc2ccc3c(c2)C(Cc2cccc(Cl)c2)C(N)CC3)[nH]1 (centres unmarked) [Example 58, 2-Methyl-3H-imidazole-4-sulfonic acid {2-[7-amino-8-(3-chloro-benzyl)-5,6,7,8-tetrahydronaphthalen-2-yloxy]-ethyl}-amide] |  | 
≤ 0.1 | ≤ 0.1 | CCCS(=O)(=O)N(C)Cc1ccc2c(c1)[C@H](Cc1ccccc1)[C@H](N)CC2 (relative stereo) [Example 45, N-{[cis-7-amino-8-benzyl-5,6,7,8-tetrahydronaphthalen-2-yl]methyl}-N-methylpropane-1-sulfonamide hydrochloride] |  | 
≤ 10 | ≤ 100 | CCOC(=O)NC1CCc2ccc(OCCNS(=O)(=O)c3cccnc3)cc2C1Cc1ccc(Cl)c(Cl)c1 (centres unmarked) [Example 10, {1-(3,4-Dichloro-benzyl)-7-[2-(pyridine-3-sulfonylamino)-ethoxy]-1,2,3,4-tetrahydronaphthalen-2-yl}-carbamic acid ethyl ester] |  | 
≤ 0.01 | ≤ 0.1 | Cn1cnc(S(=O)(=O)NCCOc2ccc3c(c2)C(Cc2ccc(Cl)c(Cl)c2)C(NC=O)CC3)c1 (centres unmarked) [Example 20, 1-Methyl-1H-imidazole-4-sulfonic acid {2-[8-(3,4-dichloro-benzyl)-7-formylamino-5,6,7,8-tetrahydro-naphthalen-2-yloxy]-ethyl}-amide] |  | 
≤ 0.01 | ≤ 0.1 | Cn1cc(S(=O)(=O)NCCOc2ccc3c(c2)C(Cc2ccc(Cl)cc2Cl)C(N)CC3)cn1 (centres unmarked) [Example 71, 1-Methyl-1H-pyrazole-4-sulfonic acid {2-[7-amino-8-(2,4-dichloro-benzyl)-5,6,7,8-tetrahydro-naphthalen-2-yloxy]-ethyl}-amide hydrochloride] |  | 
≤ 1 | ≤ 10 | CCOC(=O)NC1CCc2ccc(OCCNS(=O)(=O)c3cccs3)cc2C1Cc1cccc(Cl)c1 (centres unmarked) [Example 50, {1-(3-Chloro-benzyl)-7-[2-(thiophene-2-sulfonylamino)-ethoxy]-1,2,3,4-tetrahydronaphthalen-2-yl}-carbamic acid ethyl ester] |  | 
≤ 0.01 | ≤ 0.01 | Cn1cc(S(=O)(=O)NCCOc2ccc3c(c2)C(Cc2cccc(Cl)c2)C(N)CC3)cn1 (centres unmarked) [Example 47, 1-Methyl-1H-pyrazole-4-sulfonic acid {2-[7-amino-8-(3-chloro-benzyl)-5,6,7,8-tetrahydronaphthalen-2-yloxy]-ethyl}-amide hydrochloride] |  | 
≤ 100 | ≤ 10 | NC1CCc2ccc(OC(F)F)cc2C1Cc1ccc(Cl)cc1 (centres unmarked) [Example 36, 1-(4-chlorobenzyl)-7-(difluoromethoxy)-1,2,3,4-tetrahydronaphthalen-2-amine hydrochloride] |  | 
≤ 100 | ≤ 1000 | CCOC(=O)NC1CCc2ccc(OCCNS(=O)(=O)c3ccc(Cl)s3)cc2C1Cc1cccc(Cl)c1 (centres unmarked) [Example 51, {1-(3-Chloro-benzyl)-7-[2-(5-chloro-thiophene-2-sulfonylamino)-ethoxy]-1,2,3,4-tetrahydronaphthalen-2-yl}-carbamic acid ethyl ester] |  | 
 |  | CCS(=O)(=O)NCCOc1ccc2c(c1)C(Cc1cccc(Cl)c1)C(N)CC2 (centres unmarked) [Example 70, Ethanesulfonic acid {2-[7-amino-8-(3-chloro-benzyl)-5,6,7,8-tetrahydro-naphthalen-2-yloxy]-ethyl}-amide hydrochloride] | ≤ 0.1 | ≤ 1
≤ 1 | ≤ 10 | Cc1nc(C)c(S(=O)(=O)NCCOc2ccc3c(c2)C(Cc2cccc(Cl)c2)C(N)CC3)s1 (centres unmarked) [Example 57, 2,4-Dimethyl-thiazole-5-sulfonic acid {2-[7-amino-8-(3-chloro-benzyl)-5,6,7,8-tetrahydronaphthalen-2-yloxy]-ethyl}-amide] |  | 
≤ 1 | ≤ 1 | NC1CCc2ccc(OCCN3CCCS3(=O)=O)cc2C1Cc1cccc(Cl)c1 (centres unmarked) [Example 33, 1-(3-chlorobenzyl)-7-[2-(1,1-dioxidoisothiazolidin-2-yl)ethoxy]-1,2,3,4-tetrahydronaphthalen-2-amine hydrochloride] |  | 
≤ 0.1 | ≤ 1 | NC1CCc2ccc(OCCNS(=O)(=O)c3cccs3)cc2C1Cc1cccc(Cl)c1 (centres unmarked) [Example 56, Thiophene-2-sulfonic acid {2-[7-amino-8-(3-chloro-benzyl)-5,6,7,8-tetrahydro-naphthalen-2-yloxy]-ethyl}-amide] |  | 

SMILES | Ki (human GlyT1c transporter; [1]) [µM] | IC50 (human GlyT1c; [2]) [µM] | Ki (human GlyT1c transporter) [µM] | IC50 (human GlyT1c) [µM]
Cn1cnc(S(=O)(=O)NCCOc2ccc3c(c2)C(Cc2cccc(Cl)c2)C(N)CC3)c1 (centres unmarked) [Example 48, 1-Methyl-1H-imidazole-4-sulfonic acid {2-[7-amino-8-(3-chloro-benzyl)-5,6,7,8-tetrahydronaphthalen-2-yloxy]-ethyl}-amide hydrochloride] | ≤ 0.01 | ≤ 0.01 |  | 
NC1CCc2ccc(OCCNS(=O)(=O)c3cccs3)cc2C1Cc1ccc(Cl)c(Cl)c1 (centres unmarked) [Example 17, Thiophene-2-sulfonic acid {2-[7-amino-8-(3,4-dichloro-benzyl)-5,6,7,8-tetrahydro-naphthalen-2-yloxy]-ethyl}-amide hydrochloride] | ≤ 1 | ≤ 10 |  | 
